Source: patent US20110152218A1, “CRYSTALLINE PHOSPHOLIPID, METHOD FOR ITS PRODUCTION AND USE IN TREATING DAMAGED TISSUE” (priority 2008, published 2011)

Columns and labels:
HPMC [1] = assay: HPMC ATP bioluminescence assay; assay type: cell-based, human; settings: 72 hours; single well; over the tested concentrations
Description: The viability of HPMC after stimulation with FCS, phospholipid prepared according to Example 1 (Vibrated and Non-vibrated), lysophosphatidic acid (LPA), DPPC, DPPC/LPA, POPC, Curosurf, egg-PG (EPG) and the three Intralipid™ products was determined using an ATP assay. This assay measures the light emitted during the ATP dependant oxidation of luciferin in order to accurately quantify the ATP concentration.
As described in Example 3, primary HPMC are isolated from omental tissue biopsies donated by consenting patients undergoing elective abdominal surgery. Cells are grown to approximately 60% confluence in 96 well plates (Falcon) and used at passage 2. All cells are growth arrested in serum free M199 for 24 hours prior to use.
An ATP Bioluminescence Assay Kit CLS II (Roche Diagnostics, Cat No 1 699 695, 11857300) was used. It contains ATP Standard, Luciferase and distilled water. A 10 mM EDTA solution was prepared by dissolving 1.8612 g EDTA (Fischer Scientific, Code D/0650/60, Batch 0447430, Mr-372.24) in 500 ml H2O (or 3.7224 g in 1 litre). A BAC-extract solution was prepared by dissolving 1 g Benzalkonium Chloride (Sigma-Aldrich, Cat:-23, 442-7, Lot S22104-334) in 1 litre of 10 mM EDTA. […]
To mix, rotate the bottle carefully. • 2) Make up an ATP standard solution having a base concentration of 1.65 μM ATP. […] Use distilled water as the control. • 4) Set the Fluostar Optima plate reader to measure luminescence. Set the Fluostar Optima plate reader pump to inject 20 μl of luciferase into each of the required wells. • 5) Place the plate into the plate reader and measure the relative light units (RLU). • 6) Prepare a standard curve such as that shown in FIG. 16 by plotting a graph of RLU against ATP concentration.
96 well plates from the HPMC proliferation study were defrosted. […] The ATP concentrations were calculated from the RLU of the samples using the standard curve. As an alternative to using an ATP standard curve, data can be normalised to the un-stimulated control and expressed as “ATP (% of control)”.

HPMC [2] = assay: Alamar Blue assay of HPMC proliferation in various tested media; assay type: cell-based, human; settings: 50/50 v/v Hartmanns solution and supplemented M199; 48 hours; single well
Description: The suitability of various media for use in forming a dispersion of phospholipid prepared as described in Example 1 or of DPPC was investigated. The Alamar Blue™ assay of HPMC proliferation described in Example 3 was repeated using a single well of cells for each stimulation with a positive control of FCS dispersed in the tested medium, a negative control of the tested medium, and a phospholipid dispersed in the tested medium. The results obtained after 48 hours are shown in FIGS. 13A-13J and discussed below.

[3] = tested on: human peritoneal mesothelial cell (HPMC); assay: HPMC proliferation, Alamar Blue and MTT assay; assay type: cell-based; settings: 48 hours and 72 hours; over the tested concentrations in supplemented M199
Description: The effect of a phospholipid prepared as described in Example 1 (and/or its constituent compounds) to induce human peritoneal mesothelial cell proliferation was assessed using an Alamar Blue™ assay and an MTT assay.
The Alamar Blue™ assay is designed to measure the proliferation of various cell types by measuring the ability of the cells to metabolise and reduce a REDOX indicator (Alamar Blue™). Reduction of the REDOX indicator results in a change in its fluorescent activity. Therefore the fluorescent activity measured is proportional to cell proliferation.
The MTT Assay measures the proliferations of various cells and is based on the mitochondrial conversion of tetrazolium salt 3-[4,5-dimethyl-thiazol-2-yl]-2,5-diphenyltetrazium bromide (MTT), into an insoluble formazan salt. The resultant colour change is directly related to the number of viable cells.
As described in Morgan L W et al (“Glucose degradation products (GDP) retard re-mesothelialisation independently of D-glucose concentration.” Kidney Int 64:1854-1866, 2003), primary HPMC are isolated from omental tissue biopsies donated by consenting patients undergoing elective abdominal surgery. Cells were grown to approximately 60% confluence in 96 well plates (Falcon) and used at passage 2. All cells were growth arrested in serum free M199 for 24 hours prior to use.
The supplemented M199 medium was prepared as follows. Earle's salt medium M199 was supplemented with 100μ/ml penicillin, 100 μg/ml streptomycin, 2 mM glutamine, 5 μg/ml insulin, 5 μg/ml transferrin and 0.4 μg/ml hydrocortisone and 2 mmol/L N-2-hydroxyethylpiperazine-N′-2ethanesulfonic acid.
The phospholipid prepared as described in Example 1 was prepared as follows. […]
The growth medium was aspirated from each well and then the well was washed once using 200 μl per well of supplemented M199. […] The fluorescent activity of Alamar Blue™ at 540 nm (wavelength) was measured using a Dynex Revalation 96-multiwell plate reader. […]

CCCCCCCCCCCCCCCC(=O)OC[C@H](COP(=O)([O-])OCC[N+](C)(C)C)OC(=O)CCCCCCCCCCCCCCC [DPPC, Dipalmitoyl phosphatidyl choline]
HPMC proliferation by ATP assay (ATP % of control) compared to the negative control (HPMC [1]): no increase of HPMC proliferation
HPMC proliferation response in the first tested medium (HPMC [2]): not as great as DPPC in supplemented M199 by itself
HPMC proliferation compared to the negative control [3]: no significant stimulation of HPMC proliferation
